Like-named read-outs stand apart in the source and are kept apart here.
How the values were obtained:
[1] = test system: phosphorylated c-Jun (p-c-Jun) in U2OS cells; test: Dose-response western blot of c-Jun phosphorylation in sorbitol-treated U2OS cells; format: cell-based; details: sorbitol 0.2 M, read-out: cellular EC50, c-Jun phosphorylation inhibition
Protocol: U2OS cells were incubated a day before the experiment in a six-well plate. On the day of the experiment, the cells underwent media change and were incubated with the compound containing 0.1% DMSO, or DMSO only, for 80 min. Sorbitol was then added to the concentration of 0.2 M for 40 min, except for an “untreated” well. After 40 min, the cells were harvested using Trypsin B and were washed with ice-cold PBS. The cells were lysed using a mixture of 50 μL of RIPA buffer (Sigma; R0278) and a protease inhibitor (Sigma; P8340) for 20 min, in which every 5 min, the cells undergo a 5 s vortex. After 20 min, cell lysates underwent a 20 min centrifuge at 4 °C at 21,000 rpm. The lysates were then separated from the cell membrane remains. Protein concentration was determined by the BCA analysis, and 35 μg of protein was taken from each sample, supplemented with 4× loading buffer that has 0.02 mM DTT, and heated for 10 min at 70 °C. […] The membrane was washed again with TBS-T three times for 10 min and reincubated with the blocking buffer for 30 min. […] The protocol repeats itself, using an anti-mouse HRP secondary antibody instead.
Quantification was done using ImageJ software.

MKK7 [2] = details: read-out: in vitro IC50; cited from earlier work
p-JNK = test system: p-JNK; parameters: method as in PMID 30768270; details: read-out: EC50 in cells; cited from earlier work
MKK7 [3] = target: T1, MKK7 (Homo sapiens, UniProt O14733); test: Intact protein LC/MS labeling of recombinant MKK7; details: 2 μM compound, 2 μM protein, 5 μM ATP, 5 mM MgCl2, 10 min, 4 °C
T1 sequence (O14733 117-419 limits assumed): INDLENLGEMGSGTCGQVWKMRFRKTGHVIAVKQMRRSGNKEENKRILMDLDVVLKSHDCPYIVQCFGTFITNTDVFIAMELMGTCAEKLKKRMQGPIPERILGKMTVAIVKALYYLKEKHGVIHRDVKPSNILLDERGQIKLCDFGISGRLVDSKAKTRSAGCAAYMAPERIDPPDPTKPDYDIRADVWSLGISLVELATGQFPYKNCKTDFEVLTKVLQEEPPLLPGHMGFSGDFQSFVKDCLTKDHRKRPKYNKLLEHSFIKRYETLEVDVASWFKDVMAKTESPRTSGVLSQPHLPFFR

[4] = parameters: method as in PMID 30768270; details: human liver microsome; cited from earlier work
MKK7 [5] = target: T2, MKK7 (Homo sapiens, UniProt O14733); test: In vitro kinase activity assay (Nanosyn), MKK7 coupled with inactive JNK1; format: biochemical; details: MKK7 1 nM, 2 h preincubation, 2 μM ATP
T2 construct: purchased Nanosyn, Santa Clara, CA (assay service)
T2 sequence (O14733 1-419): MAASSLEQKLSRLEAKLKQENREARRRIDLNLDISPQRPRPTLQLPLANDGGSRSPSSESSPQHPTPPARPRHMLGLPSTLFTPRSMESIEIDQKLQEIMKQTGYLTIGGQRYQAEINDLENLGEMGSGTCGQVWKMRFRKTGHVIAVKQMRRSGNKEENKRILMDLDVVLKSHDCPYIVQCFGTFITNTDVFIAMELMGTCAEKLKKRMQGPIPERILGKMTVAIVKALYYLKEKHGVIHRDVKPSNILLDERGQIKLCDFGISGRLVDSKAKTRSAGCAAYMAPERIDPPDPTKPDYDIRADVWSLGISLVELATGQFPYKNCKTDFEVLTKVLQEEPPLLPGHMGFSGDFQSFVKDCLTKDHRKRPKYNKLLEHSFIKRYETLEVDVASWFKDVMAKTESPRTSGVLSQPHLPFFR

JNK = target: T3, JNK (Homo sapiens, UniProt P45983); test: Coupled JNK/MKK7 in vitro kinase activity assay, second phase of biphasic curve; format: biochemical; details: second sigmoid of biphasic curve, higher concentrations
T3 construct: purchased Nanosyn, Santa Clara, CA (assay service)
Protocol: Test compounds were diluted in DMSO to a final concentration that ranged from 10 μM to 0.0565 nM, while the final concentration of DMSO in all assays was kept at 1%. The reference compound, Staurosporine, was tested in a similar manner as a positive control. […] After incubation (17 h), the activity of JNK1 activated by MKK7 was tested in the presence of 30 μM ATP.
Figure S11. A model of compound 1e based on the co-crystal structure of MKK7 in complex with
Note that the side-chains were not remodeled and may in fact adopt
a rotamer that places closer to the hydroxy moiety.
Figure S12. Biphasic in vitro kinase inhibition behavior by alkyne 2. In a coupled JNK/ MKK7 in
Each sigmoidal curve can be
(1 picture or pasted object on this page, not shown here)

[6] = parameters: method as in PMID 30768270; details: PAMPA; cited from earlier work

T3 sequence (P45983 whole entry): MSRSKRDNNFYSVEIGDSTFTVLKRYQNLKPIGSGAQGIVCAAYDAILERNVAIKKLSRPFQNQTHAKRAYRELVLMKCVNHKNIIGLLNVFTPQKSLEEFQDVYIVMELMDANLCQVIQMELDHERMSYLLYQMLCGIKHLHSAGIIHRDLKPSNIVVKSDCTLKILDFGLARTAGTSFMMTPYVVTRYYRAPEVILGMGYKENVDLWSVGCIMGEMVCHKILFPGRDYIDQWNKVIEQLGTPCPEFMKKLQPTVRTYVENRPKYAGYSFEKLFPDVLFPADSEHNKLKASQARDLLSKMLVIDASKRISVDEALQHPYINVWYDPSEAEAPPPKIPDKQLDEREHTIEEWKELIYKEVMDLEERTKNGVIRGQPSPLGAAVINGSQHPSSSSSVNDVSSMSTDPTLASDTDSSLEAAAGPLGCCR

Row | SMILES | EC50 ([1]; Homo sapiens, U2OS) | IC50 (MKK7 [5]) | also measured
1 | C=CC(=O)N1CCC[C@@H](n2nc(-c3cn(-c4ccc(Cl)cc4O)nn3)c3c(N)ncnc32)C1 [1d, (R)-1-(3-(4-Amino-3-(1-(4-chloro-2-hydroxyphenyl)-1H-1,2,3-triazol-4-yl)-1H-pyrazolo[3,4-d]pyrimidin-1-yl)piperidin-1-yl)prop-2-en-1-one] | 1.09 µM |  | 
2 | C=CC(=O)N1CCC[C@@H](n2nc(-c3cn(C[C@H](O)c4ccc(Br)cc4)nn3)c3c(N)ncnc32)C1 [1e, 1-((R)-3-(4-Amino-3-(1-((R)-2-(4-bromophenyl)-2-hydroxy-ethyl)-1H-1,2,3-triazol-4-yl)-1H-pyrazolo[3,4-d]pyrimidin-1-yl)piperidin-1-yl)prop-2-en-1-one] | > 0.5 µM |  | 
3 | C=CC(=O)N1CCC[C@@H](n2nc(-c3cn(-c4ccc(C(C)=O)cc4)nn3)c3c(N)ncnc32)C1 [1g] |  |  | IC50 (MKK7 [2]): 0.01 µM; EC50 (p-JNK): ~0.4 µM; % MKK7 labeling (MKK7 [3]): 89%; CL HLM [4]: 0.154 µL/min/mg
4 | C=CC(=O)N1CCC[C@@H](n2nc(-c3cn(CC(F)(F)c4ccccc4)nn3)c3c(N)ncnc32)C1 [1k, (R)-1-(3-(4-Amino-3-(1-(2,2-difluoro-2-phenylethyl)-1H-1,2,3-triazol-4-yl)-1H-pyrazolo[3,4-d]pyrimidin-1-yl)piperidin-1-yl)prop-2-en-1-one] | 0.265 µM | 0.004 µM | 
5 | C=CC(=O)Nc1cc(C(=O)NCc2cn([C@@H]3CCCC[C@H]3OC)nn2)cc(-c2n[nH]c3ccccc23)c1 [2a, rac-3-Acrylamido-5-(1H-indazol-3-yl)-N-((1-((trans-)-2-methoxycyclohexyl)-1H-1,2,3-triazol-4-yl)methyl)benzamide] | > 10 µM | 0.03 µM | 
6 | C=CC(=O)Nc1cc(C(=O)NCc2cn(-c3ccccc3C)nn2)cc(-c2n[nH]c3ccccc23)c1 [2b, 3-Acrylamido-5-(1H-indazol-3-yl)-N-((1-(o-tolyl)-1H-1,2,3-triazol-4-yl)methyl)benzamide] | ~3 µM |  | EC50 [1]: < 3 µM
7 | C=CC(=O)Nc1cc(C(=O)NCc2cn(C3CCC3)nn2)cc(-c2n[nH]c3ccccc23)c1 [2c, 3-Acrylamido-N-((1-cyclobutyl-1H-1,2,3-triazol-4-yl)methyl)-5-(1H-indazol-3-yl)benzamide] | > 5 µM |  | 
8 | C=CC(=O)Nc1cc(C(=O)NCc2cn(CCOC)nn2)cc(-c2n[nH]c3ccccc23)c1 [2d, 3-Acrylamido-5-(1H-indazol-3-yl)-N-((1-(2-methoxyethyl)-1H-1,2,3-triazol-4-yl)methyl)benzamide] |  |  | % MKK7 labeling (MKK7 [3]): 100%
9 | C#Cc1nn([C@@H]2CCCN(C(=O)C=C)C2)c2ncnc(N)c12 [compound 1] | > 10 µM | 0.03 µM | 
10 | C#CCNC(=O)c1cc(NC(=O)C=C)cc(-c2n[nH]c3ccccc23)c1 [compound 2, 3-Acrylamido-5-(1H-indazol-3-yl)-N-(prop-2-yn-1-yl)benzamide] | < 0.1 µM | 0.0006 µM | IC50 (JNK): 1.97 µM; % MKK7 labeling (MKK7 [3]): 100%
11 | C=CC(=O)N1CCC[C@@H](n2nc(-c3ccc(Oc4ccccc4)cc3)c3c(N)ncnc32)C1 [ibrutinib] |  |  | permeability [6]: 38 %flux

Reference: article PMC9376956, “Optimization of Covalent MKK7 Inhibitors via Crude Nanomole-Scale Libraries” (Journal of Medicinal Chemistry, 2022)
